Results published in patent publication US20230091047A1 (priority 2019, published 2023).
Read-outs that look alike come from different tables or passages of the source.

Tests used:
[1] = system: HBV (HepG2.117 cell line, inducibly HBV producing); experiment: Anti-HBV activity: intracellular HBV DNA by real-time PCR in HepG2.117 cells after 3 days of treatment; format: cell-based, hepatitis B virus
Summary of the method: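 HepG2.117 cells replicate HBV under Tet-off control, without doxycycline. After induction of replication, cells were treated with serially diluted compound for 3 days, and intracellular HBV DNA was then quantified by real-time PCR with an HBV-specific primer set and probe.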

[2] = system: HepG2 cells; experiment: in vitro; format: cell-based; conditions: 3-days incubation (unmarked values); HepG2 or HepG2.117 cells, ATPlite; mean value; read-out: CC50 (μM, mean value)
Summary of the method: (§1)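 Luminescent ATP quantitation served as the viability endpoint following a 3- or 4-day incubation with test compounds.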

[3] = in vitro; format: cell-based; conditions: human, HepG2 or HepG2.117 cells, mean value
Summary of the method: as §1

[4] = HepG2.117 cells, 3 days of treatment, intracellular HBV DNA by real-time PCR; mean value; read-out: EC50 (μM, mean value)
[5] = Hepatitis B virus, HepG2.117, 72 h, HepG2.117 cells, intracellular HBV DNA by real-time PCR, 3 days of treatment, mean value; read-out: EC50 (μM, mean value)
[6] = ATPlite, 3-days incubation (not marked with *)
[7] = Hepatitis B virus, HepG2.117, 72 h, HepG2.117 cells, 3 days of treatment, intracellular HBV DNA by real-time PCR; mean value; read-out: EC50 (μM, mean value)
[8] = 3-days incubation (unmarked values), ATPlite viability

SMILES | EC50 [1, 5] [µM] | CC50 at 3 days [3, 6] [µM] | also measured
CNC(=O)c1ccc(-n2c(NC(C)C)nc3c(c2=O)C[C@@H](C)N(C(=O)c2ccc(Cl)c(Cl)c2)C3)c(Cl)c1 (atropisomer, axis not shown) [Compound C293b, 3-chloro-4-[(6R)-7-(3,4-dichlorobenzoyl)-6-methyl-4-oxo-2-[(propan-2-yl)amino]-5,6,7,8-tetrahydropyrido[3,4-d]pyrimidin-3(4H)-yl]-N-methylbenzamide] |  |  | EC50 [1, 4]: 0.06 µM; CC50 [2]: 27.1 µM
Cc1cc(-n2cccn2)ccc1-n1c(NC(C)C)nc2c(c1=O)C[C@@H](C)N(C(=O)c1ccc(Cl)c(Cl)c1)C2 (atropisomer, axis not shown) [Compound C308a, (6R)-7-(3,4-dichlorobenzoyl)-6-methyl-3-[2-methyl-4-(1H-pyrazol-1-yl)phenyl]-2-[(propan-2-yl)amino]-5,6,7,8-tetrahydropyrido[3,4-d]pyrimidin-4(3H)-one] |  |  | EC50 [1, 4]: 0.11 µM; CC50 [2]: > 50 µM
CC(C)Nc1nc2c(c(=O)n1-c1ccc(S(C)(=O)=O)cc1)C[C@H](C)N(C(=O)c1ccc(Cl)c(Cl)c1)C2 [Compound C141, (6S)-7-(3,4-dichlorobenzoyl)-3-[4-(methanesulfonyl)phenyl]-6-methyl-2-[(propan-2-yl)amino]-5,6,7,8-tetrahydropyrido[3,4-d]pyrimidin-4(3H)-one] |  |  | CC50 [2]: > 50 µM
CNC(=O)c1ccc(-n2c(NC(C)C)nc3c(c2=O)C[C@@H](C)N(C(=O)c2ccc(Cl)c(C(F)(F)F)c2)C3)cc1Cl [Compound C642] | 0.04 | > 50 | 
CNC(=O)c1ccc(-n2c(NC(C)C)nc3c(c2=O)C[C@@H](C)N(C(=O)c2ccc(Cl)c(C(F)(F)F)c2)C3)c(OC)c1 [Compound C643] | 0.05 | > 50 | 
CNC(=O)[C@H]1CC[C@@H](n2c(N[C@@H](C)c3ccc(C(F)(F)F)cc3)nc3c(c2=O)C[C@@H](C)N(C(=O)c2ccc(Cl)c(Cl)c2)C3)CC1 [Compound C644] | 0.23 | 7.5 | 
CNC(=O)c1cc(-n2c(NC(C)C)nc3c(c2=O)C[C@@H](C)N(C(=O)c2ccc(Cl)c(C(F)(F)F)c2)C3)n(C)n1 [Compound C645] | 0.04 | > 50 | 
CNC(=O)c1cc(-n2c(NC(C)C)nc3c(c2=O)C[C@@H](C)N(C(=O)c2cccc(C(F)(F)F)c2)C3)n(C)n1 [Compound C646] | 1.62 | > 50 | 
CNC(=O)c1ccc(-n2c(NC(C)C)nc3c(c2=O)C[C@@H](C)N(C(=O)c2ccc(Cl)cc2C(F)(F)F)C3)cc1 [Compound C648] | 0.22 | > 50 | 
CNC(=O)c1ccc(-n2c(N[C@@H](C)c3ccc(F)cc3)nc3c(c2=O)C[C@@H](C)N(C(=O)c2ccc(Cl)c(C(F)(F)F)c2)C3)cc1 [Compound C651] | 0.05 | 8.8 | 
CNC(=O)c1cc(-n2c(O)nc3c(c2=O)C[C@@H](C)N(C(=O)c2ccc(Cl)c(C(F)(F)F)c2)C3)n(C)n1 [Compound C653] | > 2.5 | > 50 | 
CC(C)Nc1nc2c(c(=O)n1-c1ccc(C(=O)NC3CC3)cc1)C[C@@H](C)N(C(=O)c1ccc(Cl)c(C(F)(F)F)c1)C2 [Compound C654] | 0.03 | > 50 | 
CNC(=O)c1ccc(-n2c(N[C@@H](C)c3ccc(C(F)(F)F)cc3)nc3c(c2=O)C[C@@H](C)N(C(=O)c2ccc(Cl)c(Cl)c2)C3)nc1 [Compound C655] | 0.08 | 9.1 | 
CC(C)Nc1nc2c(c(=O)n1-c1ccnc(Cl)c1)C[C@@H](C)N(C(=O)c1ccc(Cl)c(Cl)c1)C2 [Compound C656] | 0.26 | > 50 | 
CNC(=O)c1cc(-n2c(N[C@@H](C)c3ccc(F)cc3)nc3c(c2=O)C[C@@H](C)N(C(=O)c2ccc(Cl)c(C(F)(F)F)c2)C3)n(C)n1 [Compound C658] | 0.07 | 32.2 | 
CNC(=O)c1ccc(-n2c(NC(C)C)nc3c(c2=O)C[C@@H](C)N(C(=O)c2ccc(Cl)c(C(F)(F)F)c2)C3)c(C2CC2)c1 [Compound C661] | 0.07 | 25 | 
CNC(=O)c1ccc(-n2c(NC3(c4ccccc4)CC3)nc3c(c2=O)C[C@@H](C)N(C(=O)c2ccc(Cl)c(Cl)c2)C3)cc1 [Compound C662] | 0.16 | 30.5 | 
CNC(=O)c1cc(-n2c(NC(C)C)nc3c(c2=O)C[C@@H](C)N(C(=O)c2ccc(Cl)c(C(F)(F)F)c2)C3)nn1C [Compound C668] | 0.01 | > 50 | 
COC(=O)c1ccc(-n2c(NC(C)CCCCO)nc3c(c2=O)C[C@@H](C)N(C(=O)c2ccc(Cl)c(Cl)c2)C3)cc1OC (some centres unmarked) [Compound C670] | 0.37 | > 50 | 
CNC(=O)c1ncc(-n2c(NC(C)C)nc3c(c2=O)C[C@@H](C)N(C(=O)c2ccc(Cl)c(C(F)(F)F)c2)C3)n1C [Compound C671] | 0.05 | > 50 | 

SMILES | EC50 [1, 5] [µM] | CC50 at 3 days [3, 6] [µM] | also measured
CNC(=O)c1cc(-n2c(NC(C)C)nc3c(c2=O)C[C@@H](C)N(C(=O)c2ccc(Cl)c(C(F)F)c2)C3)n(C)n1 [Compound C672] | 0.09 | > 50 | 
CNC(=O)c1ccc(-n2c(NC(C)C)nc3c(c2=O)C[C@@H](C)N(C(=O)c2cc(Cl)c(Cl)cn2)C3)cc1 [Compound C674] | 2.04 | > 50 | 
CNC(=O)c1ccc(-n2c(NC(C)C)nc3c(c2=O)C[C@@H](C)N(C(=O)c2cnc4ccccc4n2)C3)cc1 [Compound C675] | 1.6 | > 50 | 
CNC(=O)c1ccc(-n2c(NC(C)C)nc3c(c2=O)C[C@@H](C)N(C(=O)c2ccc(Cl)c(OC(F)F)c2)C3)cc1 [Compound C679] | 0.21 | > 50 | 
CC(C)Nc1nc2c(c(=O)n1-c1ccc(C(=O)NC3CC3)cc1)C[C@@H](C)N(C(=O)c1ccc(Cl)c(C(F)F)c1)C2 [Compound C681] | 0.04 | > 50 | 
CC(C)Nc1nc2c(c(=O)n1-c1ccc(C(=O)N3CCOCC3)cc1)C[C@@H](C)N(C(=O)c1ccc(Cl)c(C(F)F)c1)C2 [Compound C682] | 0.12 | > 50 | 
CNC(=O)c1ccc(-n2c(NC(C)C)nc3c(c2=O)C[C@@H](C)N(C(=O)c2ccc(Cl)c(C(F)(F)F)c2)C3)nn1 [Compound C684] | 0.06 | > 50 | 
CNC(=O)c1ccc(-n2c(NC(C)C)nc3c(c2=O)C[C@@H](C)N(C(=O)c2ccc(Cl)c(C#N)c2)C3)cc1 [Compound C686] | 0.2 | > 50 | 
CNC(=O)c1cc(-n2c(NC(C)C)nc3c(c2=O)C[C@@H](C)N(C(=O)c2ccc(Cl)c(C(F)(F)F)c2)C3)[nH]n1 [Compound C687] | 0.02 | > 50 | 
CNC(=O)c1cc(Cl)c(-n2c(NC(C)C)nc3c(c2=O)C[C@@H](C)N(C(=O)c2ccc(Cl)c(C(F)(F)F)c2)C3)c(Cl)c1 [Compound C688] | 0.04 | 29.3 | 
COc1ccc(CN(c2nc3c(c(=O)n2-c2ccc(Br)cc2)C[C@@H](C)N(C(=O)c2ccc(Cl)c(Cl)c2)C3)C(C)C)c(OC)c1 [Compound C691] | 2.45 | > 50 | 
CNC(=O)c1n[nH]c(-n2c(NC(C)C)nc3c(c2=O)C[C@@H](C)N(C(=O)c2ccc(Cl)c(Cl)c2)C3)c1Cl [Compound C692] | 0.07 | > 50 | 
CNC(=O)c1n[nH]c(-n2c(NC(C)C)nc3c(c2=O)C[C@@H](C)N(C(=O)c2ccc(Cl)c(Cl)c2)C3)c1C [Compound C693] | 0.11 | > 50 | 
CC(C)NC(=O)c1cnc(-n2c(NC(C)C)nc3c(c2=O)C[C@@H](C)N(C(=O)c2ccc(Cl)c(C(F)(F)F)c2)C3)cn1 [Compound C694] |  |  | EC50 [1, 7]: 0.05 µM; CC50 at 3 days [3, 8]: > 50 µM
CNC(=O)c1cnc(-n2c(NC(C)C)nc3c(c2=O)C[C@@H](C)N(C(=O)c2ccc(Cl)c(C(F)(F)F)c2)C3)cn1 [Compound C695] |  |  | EC50 [1, 7]: 0.04 µM; CC50 at 3 days [3, 8]: > 50 µM
CNC(=O)c1ccc(-n2c(NC(C)C)nc3c(c2=O)C[C@@H](C)N(C(=O)c2ccc(Cl)c(C(F)(F)F)c2)C3)nc1 [Compound C698] |  |  | EC50 [1, 7]: 0.02 µM; CC50 at 3 days [3, 8]: > 50 µM
CNC(=O)c1ccc(-n2c(N[C@@H](C)C3CC3)nc3c(c2=O)C[C@@H](C)N(C(=O)c2ccc(Cl)c(C(F)F)c2)C3)cc1 [Compound C699, 4-((R)-7-(4-chloro-3-(difluoromethyl)benzoyl)-2-(((S)-1-cyclopropylethyl)amino)-6-methyl-4-oxo-5,6,7,8-tetrahydropyrido[3,4-d]pyrimidin-3(4H)-yl)-N-methylbenzamide] |  |  | EC50 [1, 7]: 0.04 µM; CC50 at 3 days [3, 8]: > 50 µM
CC(C)NC(=O)c1ncc(-n2c(NC(C)C)nc3c(c2=O)C[C@@H](C)N(C(=O)c2ccc(Cl)c(C(F)(F)F)c2)C3)n1C [Compound C703] |  |  | EC50 [1, 7]: 0.09 µM; CC50 at 3 days [3, 8]: > 50 µM
CC(C)Nc1nc2c(c(=O)n1-c1ccc(C(=O)O)cc1)C[C@@H](C)N(C(=O)c1ccc(Cl)c(Cl)c1)C2 [Compound I70, (R)-4-(7-(3,4-dichlorobenzoyl)-2-(isopropylamino)-6-methyl-4-oxo-5,6,7,8-tetrahydropyrido[3,4-d]pyrimidin-3(4H)-yl)benzoic acid] | 3.6 | > 50 | 
